# Results reported in patent US6509318B1, “TGF-B inhibitors and methods” (The Regents of the University of California, priority 2000, dated 2003).
# Non-standard residues stand in square brackets, D forms with d. No end group written: not given here.
# Experiments:
# TGF β-1 = experiment: Inhibition of TGF β-1 activity by CITAs: reversal of TGF β-1 inhibition of DNA synthesis in MV-1-Lu cells; format: cell-based; conditions: for 3H-Thymidine Incorporation 10^3 d.p.m. ± S.D.: 24 h; for (+/−) % change over control when CITA is present: vs control (no additions)
# Source text: (§1) Inhibition of TGF β-1 Activity by CITAs: We have used a standardized in vitro assay for TGF β-1 as a test for the biological activity of CITAs. Our test is based on inhibiting the effect of TGF β-1 on a test cell proliferation system. In this assay, mink lung epithelium MV-1-Lu cells are exposed to TGF β-1. […] The decrease in DNA synthesis can be monitored by measuring the incorporation of labeled precursors in DNA. The incorporation of ^3H-thymidine in DNA in MV-1-Lu cells are used as a measure of cell proliferation. […] These concentrations of TGF β-1 were based on the amounts of TGF β-1 found in normal serum and in serum from patients with peritonitis, an inflammatory disease. The normal amount of TGF β-1 in human serum is approximately 2 nM (39 pG/ml). In patients with peritonitis, the amount increases to nearly 10 nM (169-216 pG/ml). The incorporation of ^3H-thymidine in the absence of TGF β-1 served as the control. To test the anti-TGF β-1 activity of CITAs, the cells were exposed to 1 nM, 10 nM, and 100 nM CITA-I, CITA-II, and CITA-III in the absence and in the presence of 5.0 nM and 10.0 nM TGF β-1.
# (§2) Details of Experimental Procedures: 10^4 MV-1-Lu were plated in each well of a 12 well plate in 2.0 ml minimum essential medium containing non-essential amino acids (MEM) and 10% fetal bovine serum. After 24 hours, the medium was placed with serum free MEM and the cells were further cultured for two hours before the medium was placed with serum free MEM containing the test additives. After exposure to the test medium for 24 hours, the cells were pulse labeled for two hours with 0.5 μCi (methyl-^3H)-thymidine, (specific activity 60 Ci/mmol). After pulse labeling, the radioactive medium was removed, and the cells were washed 1× with 10% trichloracetic acid (TCA), 2× with 5% TCA, then 2× with phosphate buffered saline containing 50 μg/ml non-radioactive thymidine. The wash solutions were monitored to establish that no further unbound radioactive thymidine remained. The washed cell layers were dissolved in 1 ml 0.1 N NaOH containing 1% sodium dodecyl sulfate. The radioactivity in the solution was measured in a scintillation counter and expressed as disintegrations per minute (d.p.m.). Each test was carried out in quadruplicate, and the data presented as mean±standard deviation.
# [1] = test system: mink lung epithelium MV-1-Lu cells; experiment: DNA synthesis (3H-thymidine incorporation) in MV-1-Lu cells, additions alone; format: cell-based; conditions: for 3H-Thymidine Incorporation 10^3 d.p.m. ± S.D.: 24 h; for (+/−) % change over control when CITA is present / (+/−) % change over control with TGF β-1: vs control (no additions)
# Source text: as §1, §2
substance,measurement,setting,value
Leu-Ile-Ala-Pro-D-Glu-Ala (LIAP[dE]A) [CITA-I],"DNA synthesis restored, relative to the level seen with TGF β-1","TGF β-1; MV-1-Lu cells exposed to 5 nM TGF β-1, all concentrations of CITAs",2 ×
same,reversal of the inhibition of DNA synthesis caused by TGF β-1,"TGF β-1; MV-1-Lu cells, TGF β-1 5 nM and 10 nM",markedly reversed the inhibition of DNA synthesis
same,% Increase over TGF β-1. TGF β-1 + CITA/TGF β-1 × 100,"TGF β-1; TGF β-1 5 nM + CITA 1 nM, relative to TGF β-1 5 nM alone",250%
same,3H-Thymidine Incorporation 10^3 d.p.m. ± S.D.,"TGF β-1; TGF β-1 5 nM + CITA 1 nM, MV-1-Lu cells",41.05 ± 2.04 10^3 d.p.m.
same,(+/−) % change over control when CITA is present,TGF β-1; TGF β-1 5 nM + CITA 1 nM,−29%
same,% Increase over TGF β-1. TGF β-1 + CITA/TGF β-1 × 100,"TGF β-1; TGF β-1 5 nM + CITA 10 nM, relative to TGF β-1 5 nM alone",194%
same,3H-Thymidine Incorporation 10^3 d.p.m. ± S.D.,"TGF β-1; TGF β-1 5 nM + CITA 10 nM, MV-1-Lu cells",31.88 ± 2.32 10^3 d.p.m.
same,(+/−) % change over control when CITA is present,TGF β-1; TGF β-1 5 nM + CITA 10 nM,−45%
same,% Increase over TGF β-1. TGF β-1 + CITA/TGF β-1 × 100,"TGF β-1; TGF β-1 5 nM + CITA 100 nM, relative to TGF β-1 5 nM alone",181%
same,3H-Thymidine Incorporation 10^3 d.p.m. ± S.D.,"TGF β-1; TGF β-1 5 nM + CITA 100 nM, MV-1-Lu cells",29.70 ± 2.79 10^3 d.p.m.
same,(+/−) % change over control when CITA is present,TGF β-1; TGF β-1 5 nM + CITA 100 nM,−49%
same,% Increase over TGF β-1. TGF β-1 + CITA/TGF β-1 × 100,"TGF β-1; TGF β-1 10 nM + CITA 1 nM, relative to TGF β-1 10 nM alone",1113%
same,3H-Thymidine Incorporation 10^3 d.p.m. ± S.D.,"TGF β-1; TGF β-1 10 nM + CITA 1 nM, MV-1-Lu cells",21.26 ± 1.30 10^3 d.p.m.
same,(+/−) % change over control when CITA is present,TGF β-1; TGF β-1 10 nM + CITA 1 nM,−63%
same,% Increase over TGF β-1. TGF β-1 + CITA/TGF β-1 × 100,"TGF β-1; TGF β-1 10 nM + CITA 10 nM, relative to TGF β-1 10 nM alone",1373%
same,3H-Thymidine Incorporation 10^3 d.p.m. ± S.D.,"TGF β-1; TGF β-1 10 nM + CITA 10 nM, MV-1-Lu cells",26.23 ± 2.73 10^3 d.p.m.
same,(+/−) % change over control when CITA is present,TGF β-1; TGF β-1 10 nM + CITA 10 nM,−55%
same,% Increase over TGF β-1. TGF β-1 + CITA/TGF β-1 × 100,"TGF β-1; TGF β-1 10 nM + CITA 100 nM, relative to TGF β-1 10 nM alone",906%
same,3H-Thymidine Incorporation 10^3 d.p.m. ± S.D.,"TGF β-1; TGF β-1 10 nM + CITA 100 nM, MV-1-Lu cells",17.30 ± 2.19 10^3 d.p.m.
same,(+/−) % change over control when CITA is present,TGF β-1; TGF β-1 10 nM + CITA 100 nM,−70%
same,increase in DNA synthesis in the inhibited cells,"TGF β-1; cells severely inhibited by 10 nM TGF β-1, all concentrations of CITA-I",over 10 fold
same,3H-Thymidine Incorporation 10^3 d.p.m. ± S.D.,"[1]; CITA 1 nM alone, no TGF β-1, MV-1-Lu cells",46.46 ± 2.48 10^3 d.p.m.
same,(+/−) % change over control when CITA is present,"[1]; CITA 1 nM alone, no TGF β-1",−19%
same,3H-Thymidine Incorporation 10^3 d.p.m. ± S.D.,"[1]; CITA 10 nM alone, no TGF β-1, MV-1-Lu cells",44.93 ± 3.34 10^3 d.p.m.
same,(+/−) % change over control when CITA is present,"[1]; CITA 10 nM alone, no TGF β-1",−21%
same,3H-Thymidine Incorporation 10^3 d.p.m. ± S.D.,"[1]; CITA 100 nM alone, no TGF β-1, MV-1-Lu cells",45.10 ± 1.27 10^3 d.p.m.
same,(+/−) % change over control when CITA is present,"[1]; CITA 100 nM alone, no TGF β-1",−22%
same,decrease of DNA synthesis against the control,"[1]; CITA alone, all concentrations examined (1, 10, 100 nM)",approximately 20%
"TGF β-1: transforming growth factor β-1, growth factor protein used to inhibit DNA synthesis of MV-1-Lu cells",3H-Thymidine Incorporation 10^3 d.p.m. ± S.D.,"[1]; TGF β-1 5 nM alone, MV-1-Lu cells",16.43 ± 2.95 10^3 d.p.m.
same,(+/−) % change over control with TGF β-1,[1]; TGF β-1 5 nM alone,−72%
same,decrease of DNA synthesis,"[1]; TGF β-1 5.0 nM, MV-1-Lu cells",approximately 70%
same,3H-Thymidine Incorporation 10^3 d.p.m. ± S.D.,"[1]; TGF β-1 10 nM alone, MV-1-Lu cells",1.91 ± 0.08 10^3 d.p.m.
same,(+/−) % change over control with TGF β-1,[1]; TGF β-1 10 nM alone,−97%
same,inhibition of DNA synthesis,"[1]; TGF β-1 10 nM, MV-1-Lu cells",~97%
